The assay relates to test plant species. Briefly: Post-emergent herbicidal activity test (greenhouse, foliar spray, visual growth reduction). Format: in vivo. As to conditions: post-emergence, 336 h, 140 g ai/ha, 14 days after application. An outline of the steps: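 Scoring used a 0 to 100 percent visual scale of growth reduction against solvent-treated controls, read 14 d after spraying. Applications went onto plants at first or second true leaf stage, 187 L/ha, with crop oil concentrate and X-77 surfactant in the carrier. Post-treatment watering was by subirrigation to avoid wash-off.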

[1] abbreviates: ALOMY: blackgrass (Alopecurus myosuroides), read-out: Visual Growth Reduction (%) 14 Days After Application, ALOMY.
Setting [2] is: AMARE: redroot pigweed (Amaranthus retroflexus), read-out: Visual Growth Reduction (%) 14 Days After Application, AMARE.
The mark [3] stands for this setting: AVEFA: wild oat (Avena fatua), read-out: Visual Growth Reduction (%) 14 Days After Application, AVEFA.
The mark [4] stands for this setting: CHEAL: lambsquarters (Chenopodium album), read-out: Visual Growth Reduction (%) 14 Days After Application, CHEAL.
Setting [5] is: CIRAR: canada thistle (Cirsium arvense), read-out: Visual Growth Reduction (%) 14 Days After Application, CIRAR.
The mark [6] stands for this setting: CYPES: yellow nutsedge (Cyperus esculentus), read-out: Visual Growth Reduction (%) 14 Days After Application, CYPES.
[7] abbreviates: DIGSA: crabgrass (Digitaria sanguinalis), read-out: Visual Growth Reduction (%) 14 Days After Application, DIGSA.
[8] abbreviates: ECHCG: barnyardgrass (Echinochloa crus-galli), read-out: Visual Growth Reduction (%) 14 Days After Application, ECHCG.
The mark [9] stands for this setting: IPOHE: ivy-leaf morning glory (Ipomoea hederacea), read-out: Visual Growth Reduction (%) 14 Days After Application, IPOHE.
Setting [10] is: KCHSC: kochia (Bassia scoparia), read-out: Visual Growth Reduction (%) 14 Days After Application, KCHSC.
Where [11] appears, read: ORYSA: rice (Oryza sativa), read-out: Visual Growth Reduction (%) 14 Days After Application, ORYSA.
Where [12] appears, read: SETFA: giant foxtail (Setaria faberi), read-out: Visual Growth Reduction (%) 14 Days After Application, SETFA.
The mark [13] stands for this setting: SORVU: grain sorghum (Sorghum vulgare), read-out: Visual Growth Reduction (%) 14 Days After Application, SORVU.
The mark [14] stands for this setting: STEME: common chickweed (Stellaria media), read-out: Visual Growth Reduction (%) 14 Days After Application, STEME.
The mark [15] stands for this setting: TRZAS: wheat, spring (Triticum aestivum), read-out: Visual Growth Reduction (%) 14 Days After Application, TRZAS.

Pest or weed control data for nine molecules are collected here from patent publication US20230017045A1, “PYRIDINE AND PYRIMIDINE CARBOXYLATE HERBICIDES AND METHODS OF USE THEREOF” (Dow AgroSciences LLC, priority 2017, published 2023).

Like-named read-outs stand apart in the source and are kept apart here.

`COC(=O)c1nc(-c2ccc(C#N)c(Cl)c2)ccc1Cl` [F125, Methyl 3-chloro-6-(3-chloro-4-cyanophenyl) picolinate]: the pest or weed control at 140 g/ha under setting [1] is 0 to 29%; the pest or weed control at 140 g/ha under setting [2] lay within 0 to 29%; the pest or weed control at 140 g/ha under setting [3] fell in the range of 0 to 29%; the pest or weed control at 140 g/ha under setting [4] is 45 to 59%; the pest or weed control at 140 g/ha under setting [5] was in the range of 0 to 29%; the pest or weed control at 140 g/ha under setting [6] is 0 to 29%. The pest or weed control at 140 g/ha reads like this: under setting [7], 0 to 29%; under setting [8], 0 to 29%; under setting [9], 30 to 44%; under setting [10], 0 to 29%; under setting [11], 0 to 29%; under setting [12], 0 to 29%. Moreover, the pest or weed control at 140 g/ha is, setting by setting: under setting [13], 0 to 29%; under setting [14], 0 to 29%; under setting [15], 0 to 29%.
In the case of `O=C(O)c1nc(-c2cc3c(cc2Cl)OC(F)(F)O3)ccc1Cl` [F126], the pest or weed control at 140 g/ha is, setting by setting: under setting [1], 0 to 29%; under setting [2], 95 to 100%; under setting [3], 0 to 29%; under setting [4], 85 to 94%; under setting [5], 75 to 84%; under setting [6], 0 to 29%. Moreover, the pest or weed control at 140 g/ha under setting [7] was in the range of 85 to 94%; the pest or weed control at 140 g/ha under setting [8] lay in the range of 60 to 74%; the pest or weed control at 140 g/ha under setting [9] fell in the range of 95 to 100%; the pest or weed control at 140 g/ha under setting [10] lay within 60 to 74%; the pest or weed control at 140 g/ha under setting [11] fell in the range of 0 to 29%; the pest or weed control at 140 g/ha under setting [12] was 60 to 74%. Moreover, the pest or weed control at 140 g/ha runs as follows: under setting [13], 75 to 84%; under setting [14], 0 to 29%; under setting [15], 75 to 84%.
For `O=C(O)c1nc(-c2ccc(SC(F)(F)F)cc2Cl)c(Cl)cc1Cl` [F127, 3,5-Dichloro-6-(2-chloro-4-((trifluoromethyl)thio)phenyl) picolinic acid], the pest or weed control at 140 g/ha reads like this: under setting [1], 0 to 29%; under setting [2], 95 to 100%; under setting [3], 0 to 29%; under setting [4], 75 to 84%; under setting [5], 85 to 94%; under setting [6], 0 to 29%. The pest or weed control at 140 g/ha by setting is: under setting [7], 60 to 74%; under setting [8], 0 to 29%; under setting [9], 45 to 59%; under setting [10], 75 to 84%; under setting [11], 0 to 29%; under setting [12], 75 to 84%. Moreover, the pest or weed control at 140 g/ha is, setting by setting: under setting [13], 60 to 74%; under setting [14], 0 to 29%; under setting [15], 0 to 29%.
Take `COC(=O)c1nc(-c2cc(O)c(Cl)cc2F)ccc1Cl` [F128, Methyl 3-chloro-6-(4-chloro-2-fluoro-5-hydroxyphenyl) picolinate]: the pest or weed control at 140 g/ha runs as follows: under setting [1], 0 to 29%; under setting [2], 0 to 29%; under setting [3], 0 to 29%; under setting [4], 0 to 29%; under setting [5], 0 to 29%; under setting [6], 0 to 29%. Besides, the pest or weed control at 140 g/ha is, setting by setting: under setting [7], 0 to 29%; under setting [8], 0 to 29%; under setting [9], 0 to 29%; under setting [10], 0 to 29%; under setting [11], 0 to 29%; under setting [12], 0 to 29%. Moreover, the pest or weed control at 140 g/ha under setting [13] was in the range of 0 to 29%, the pest or weed control at 140 g/ha under setting [14] is 0 to 29% and the pest or weed control at 140 g/ha under setting [15] lay in the range of 0 to 29%.
`COC(=O)c1nc(-c2cc(Cl)cnc2OC)ccc1Cl` [F129, Methyl 5,5′-dichloro-2′-methoxy-[2,3′-bipyridine-6-carboxylate]: the pest or weed control at 140 g/ha by setting is: under setting [1], 0 to 29%; under setting [2], 0 to 29%; under setting [3], 0 to 29%; under setting [4], 0 to 29%; under setting [5], 0 to 29%; under setting [6], 0 to 29%. The pest or weed control at 140 g/ha was 0 to 29% under setting [7]; 0 to 29% under setting [8]; 0 to 29% under setting [9]; 0 to 29% under setting [10]; 0 to 29% under setting [11]; 0 to 29% under setting [12]. For the same molecule, the pest or weed control at 140 g/ha under setting [13] was in the range of 0 to 29%, the pest or weed control at 140 g/ha under setting [14] lay in the range of 0 to 29% and the pest or weed control at 140 g/ha under setting [15] was 0 to 29%.
Take `COC(=O)c1nc(-c2ccc(SC(F)(F)F)cc2Cl)c(Cl)cc1Cl` [F130, Methyl 3,5-dichloro-6-(2-chloro-4-((trifluoromethyl)thio)phenyl) picolinate]: the pest or weed control at 140 g/ha by setting is: under setting [1], 0 to 29%; under setting [2], 85 to 94%; under setting [3], 0 to 29%; under setting [4], 75 to 84%; under setting [5], 75 to 84%; under setting [6], 0 to 29%. Also, the pest or weed control at 140 g/ha under setting [7] was in the range of 60 to 74%; the pest or weed control at 140 g/ha under setting [8] lay within 0 to 29%; the pest or weed control at 140 g/ha under setting [9] was 30 to 44%; the pest or weed control at 140 g/ha under setting [10] fell in the range of 60 to 74%; the pest or weed control at 140 g/ha under setting [11] is 0 to 29%; the pest or weed control at 140 g/ha under setting [12] lay in the range of 60 to 74%. The pest or weed control at 140 g/ha lay in the range of 30 to 44% under setting [13], 0 to 29% under setting [14] and 0 to 29% under setting [15].
Turning to `O=C(O)c1nc(-c2ccc(SC(F)(F)F)cc2Cl)c(F)cc1Cl` [F131, 3-Chloro-6-(2-chloro-4-((trifluoromethyl)thio)phenyl)-5-fluoropicolinic acid], the pest or weed control at 140 g/ha is, setting by setting: under setting [1], 45 to 59%; under setting [2], 95 to 100%; under setting [3], 75 to 84%; under setting [4], 95 to 100%; under setting [5], 95 to 100%; under setting [6], 0 to 29%. For the same molecule, the pest or weed control at 140 g/ha was in the range of 95 to 100% under setting [7]; 60 to 74% under setting [8]; 95 to 100% under setting [9]; 95 to 100% under setting [10]; 30 to 44% under setting [11]; 85 to 94% under setting [12]. For the same molecule, the pest or weed control at 140 g/ha was in the range of 85 to 94% under setting [13], 0 to 29% under setting [14] and 60 to 74% under setting [15].
As to `O=C(O)c1nc(-c2ccc(C(F)(F)F)cc2Cl)ccc1F` [F132, 6-(2-Chloro-4-(trifluoromethyl)phenyl)-3-fluoropicolinic acid], the pest or weed control at 140 g/ha by setting is: under setting [1], 0 to 29%; under setting [2], 95 to 100%; under setting [3], 0 to 29%; under setting [4], 95 to 100%; under setting [5], 85 to 94%; under setting [6], 0 to 29%. In addition, the pest or weed control at 140 g/ha is 75 to 84% under setting [7]; 60 to 74% under setting [8]; 95 to 100% under setting [9]; 75 to 84% under setting [10]; 0 to 29% under setting [11]; 75 to 84% under setting [12]. In addition, the pest or weed control at 140 g/ha by setting is: under setting [13], 85 to 94%; under setting [14], 0 to 29%; under setting [15], 0 to 29%.
Regarding `O=C(O)c1nc(-c2ccnc(Cl)c2Cl)ccc1Cl` [F133, 2′,3′,5-Trichloro-[2,4′-bipyridine]-6-carboxylic acid], the pest or weed control at 140 g/ha by setting is: under setting [1], 0 to 29%; under setting [2], 0 to 29%; under setting [3], 0 to 29%; under setting [4], 75 to 84%; under setting [5], 0 to 29%; under setting [6], 0 to 29%. Also, the pest or weed control at 140 g/ha by setting is: under setting [7], 45 to 59%; under setting [8], 0 to 29%; under setting [9], 45 to 59%; under setting [10], 0 to 29%; under setting [11], 0 to 29%; under setting [12], 0 to 29%. Further, the pest or weed control at 140 g/ha is 60 to 74% under setting [13], 0 to 29% under setting [14] and 0 to 29% under setting [15].
